Results reported in US20130310306A1, “HUMAN LACTOFERRIN DERIVED PEPTIDES AND THEIR USE” (PharmaSurgics In Sweden AB, priority 2011, published 2013).
“Also recorded” adds a separate entry of the source.

Tests used:
[1] = tested on: S. aureus (CCUG 1800); assay: Minimal microbicidal concentration (MMC99) assay, S. aureus; format: cell-based
Protocol: Antimicrobial Activity was Measured as Bactericidal Effect on S. Aureus Using Minimal Microbicidal Concentration, MMC99, Assay)
S. aureus (#1800; CCUG, Gothenburg, Sweden) cultured on blood-agar plates [Columbia agar (Oxoid, Basingstoke, UK) supplemented with 5% defibrinated horse blood (National Veterinary Institute (SVA), Uppsala, Sweden)] were transferred to brain heart infusion broth (3.7% BHI; Difco, BD Diagnostics, Franklin Lakes, N.J., USA) and incubated in a shaker at 250 rpm+37° C. over night. The culture was thereafter be diluted 1:10 in fresh BHI broth and incubated for additional two hours to reach log-phase growth. The bacteria were pelleted and suspended in 1% BHI medium (BHI broth diluted 100 times in ultra-pure water) to a concentration of 10^7 bacteria/ml as estimated by measuring optical density at 600 nm. Peptides were serially diluted by two-fold steps from 160 μM to 1.25 μM in 1% BHI medium. The peptides (100 μl) were thereafter incubated with bacteria (5 μl á 10^7 bact./ml) for 2 hours at +37° C. Drops (5 μl) of the suspension were placed on blood agar plates. The blood agar plates were incubated over night at +37° C. The MMC99 values, i.e. the lowest peptide concentration needed to achieve a 99% reduction of viable bacteria, were recorded (Table 3). The concentration of the bacterial suspension used in the assay was confirmed by viable counts on blood agar plates.
S. aureus (#1800; CCUG, Gothenburg, Sweden) cultured on blood-agar plates [Columbia agar (Oxoid, Basingstoke, UK) supplemented with 5% defibrinated horse blood (National Veterinary Institute (SVA), Uppsala, Sweden)] were transferred to brain heart infusion broth (3.7% BHI; Difco, BD Diagnostics, Franklin Lakes, N.J., USA) and incubated in a shaker at 250 rpm+37° C. over night. The culture was thereafter be diluted 1:10 in fresh BHI broth and incubated for additional two hours to reach log-phase growth. The bacteria were pelleted and suspended in 1% BHI medium (BHI broth diluted 100 times in ultra-pure water) to a final concentration of 10^7 bacteria/ml as estimated by measuring optical density at 600 nm. Peptides were serially diluted by two-fold steps from 400 μM to 0.78 μM in either 1% BHI medium or in 50% heat inactivated simulated wound fluid [SWF, containing 1 part 0.1% peptone (Oxoid, Basingstoke, UK) in saline and 1 part fetal bovine serum, diluted 2 times in ultra-pure water].
The peptides (100 μl) were thereafter incubated with bacteria (5 μl á 10^7 bact./ml) for 2 hours at +37° C. Drops (5 μl) of the suspension were placed on blood agar plates. The blood agar plates were incubated over night at +37° C. The MMC99 values, i.e. the lowest peptide concentration needed to achieve a 99% reduction of viable bacteria were recorded (Table 6). The concentration of the bacterial suspension used in the assay was confirmed by viable counts on blood agar plates.
(§1) The antimicrobial effects of the peptide 265 (SEQ ID NO: 27) was analysed by MMC99 (minimal microbicidal concentration) assay against S. aureus (CCUG 1800), MRSA (CCUG 41879), P. aeruginosa (ATCC 15442), E. coli (CCUG 31246), S. pyogenes (CCUG 4207), P. acnes (CCUG 1794T), S. epidermidis (ATCC12228), K. pneumoniae (ATCC 13883), A. baumannii (ATCC 19606), and C. albicans (ATCC 64549). The peptides were purchased from Biopeptide Company (San Diego, Calif., USA) and Bachem AG (Bubendorf, Switzerland) and results are presented in Table 8A and 8B respectively.
(§2) Peptide was serially diluted in two different assay medium, 1% BHI medium (brain-heart infusion medium) or 50% heat inactivated simulated wound fluid (SWF), and thereafter incubated with the microorganisms for 2 hours. Drops of the suspension were placed on blood agar plates. The MMC99 values, i.e. the lowest peptide concentration needed to achieve a 99% reduction of viable microorganisms, were recorded. As presented in Table 8, the peptide has the ability to kill microorganisms frequently appearing in infections.

[2] = tested on: MRSA (CCUG 41879); assay: MMC99 assay, MRSA; format: cell-based, methicillin resistant S. aureus; conditions: Table 8A
Protocol: as §1, §2

[3] = tested on: P. aeruginosa (ATCC 15442); assay: MMC99 assay, P. aeruginosa; format: cell-based; conditions: Table 8A
Protocol: as §1, §2

[4] = tested on: E. coli (CCUG 31246); assay: MMC99 assay, E. coli; format: cell-based; conditions: Table 8A
Protocol: as §1, §2

[5] = tested on: P. acnes (CCUG 1794T); assay: MMC99 assay, P. acnes; format: cell-based; conditions: Table 8A
Protocol: as §1, §2

[6] = tested on: S. pyogenes (CCUG 4207); assay: MMC99 assay, S. pyogenes; format: cell-based; conditions: Table 8A
Protocol: as §1, §2

[7] = tested on: S. epidermidis (ATCC12228); assay: MMC99 assay, S. epidermidis; format: cell-based; conditions: Table 8B
Protocol: as §1, §2

[8] = tested on: K. pneumoniae (ATCC 13883); assay: MMC99 assay, K. pneumoniae; format: cell-based; conditions: Table 8B
Protocol: as §1, §2

[9] = tested on: A. baumannii (ATCC 19606); assay: MMC99 assay, A. baumannii; format: cell-based; conditions: Table 8B
Protocol: as §1, §2

[10] = tested on: C. albicans (ATCC 64549); assay: MMC99 assay, C. albicans; format: cell-based; conditions: Table 8B
Protocol: as §1, §2

[11] = tested on: MRSA (CCUG 41879); assay: In vivo antimicrobial effect in excision wound model in rats; design: species or system rat; conditions: peptide in H2O 0.1, 0.5 and 2 mg/ml, single administration, two hours, vs control (H2O)
From the text: (§3) FIG. 4. Dose-response effect of peptide 265 (A) on bacterial colonization of infected excision wounds in rats. […] Results are presented as relative bacterial survival (%) compared to control group ±SEM (n=15 wounds). Statistical significance was estimated by Student's t test. *=p<0.05, **=p<0.01, ***=p<0.001.
The in vivo antimicrobial effects of the peptide 265 (SEQ ID NO: 27) was investigated in an excision wound model in rats. The wounds were inoculated with methicillin resistant S. aureus (MRSA) for two hours, followed by a single administration of peptide or control (H2O) for two hours before termination and harvest of the bacteria.

[12] = tested on: S. aureus; assay: Antimicrobial effect in infected wounds, ex vivo model on pig skin; conditions: S. aureus in PBS/serum (50/50); peptide in H2O 0.1, 0.5 and 2 mg/ml, single administration, four hours; vs placebo (H2O)
From the text: as §3, with “5. Dose response” for “4. Dose-response”, “(A),” for “(A)”, “infected” for “infected excision”, “pig skin.” for “rats.”, “(n=10” for “(n=15”
The antimicrobial effects of the peptide 265 (SEQ ID NO: 27) was investigated in an ex vivo model on pig skin. The wounds were inoculated with S. aureus in the presence of PBS/Serum 50/50. Two hours after inoculation the wounds were treated with a single administration of the peptide or placebo (H2O). Four hours after the treatment bacteria were harvested and viable counts of each wound were determined.

[13] = tested on: TNF-α production in LPS stimulated THP-1 cells; assay: Inhibition of TNF-α production in LPS stimulated THP-1 cells (ELISA); conditions: screen 2, mean relative secretion

**Q.** What does the source list for FRQWKRWMRKVFHSWRRW [Peptide 265]?
**A.** MMC99 S. aureus 1% BHI ([1]; 1% BHI, Table 8A): 4 µg/mL; MMC99 S. aureus 50% SWF ([1]; 50% SWF, Table 8A): 8 µg/mL; MMC99 μM in 1% BHI medium ([1]; screen 2, 1% BHI medium, 2 hours): 6.25 µM; MMC99 μM in 50% SWF ([1]; screen 2, 50% heat inactivated simulated wound fluid, 2 hours): 12.5 µM; MMC99 MRSA 1% BHI ([2]; 1% BHI): 6 µg/mL; MMC99 MRSA 50% SWF ([2]; 50% SWF): 50 µg/mL; MMC99 P. aeruginosa 1% BHI ([3]; 1% BHI): 4 µg/mL; MMC99 P. aeruginosa 50% SWF ([3]; 50% SWF): 134 µg/mL; MMC99 E. coli 1% BHI ([4]; 1% BHI): 5 µg/mL; MMC99 E. coli 50% SWF ([4]; 50% SWF): 67 µg/mL; MMC99 P. acnes 1% BHI ([5]; 1% BHI): <3 µg/mL; MMC99 P. acnes 50% SWF ([5]; 50% SWF): 50 µg/mL; MMC99 S. pyogenes 1% BHI ([6]; 1% BHI): <3 µg/mL; MMC99 S. pyogenes 50% SWF ([6]; 50% SWF): 25 µg/mL; MMC99 S. epidermidis 1% BHI ([7]; 1% BHI): <2 µg/mL; MMC99 S. epidermidis 50% SWF ([7]; 50% SWF): 6 µg/mL; MMC99 K. pneumoniae 1% BHI ([8]; 1% BHI): 3 µg/mL; MMC99 K. pneumoniae 50% SWF ([8]; 50% SWF): 25 µg/mL; MMC99 A. baumannii 1% BHI ([9]; 1% BHI): <2 µg/mL; MMC99 A. baumannii 50% SWF ([9]; 50% SWF): 12 µg/mL; MMC99 C. albicans 1% BHI ([10]; 1% BHI): 6 µg/mL; MMC99 C. albicans 50% SWF ([10]; 50% SWF): 100 µg/mL; bacterial colonization of infected excision wounds in rats [11]: significant reduction in bacterial counts in a dose response fashion; also recorded: pronounced antimicrobial effect; bacterial colonization of infected wounds in pig skin [12]: significant reduction in bacterial counts with a dose response relation; also recorded: highly effective; TNF-α at 40 μM peptide ([13]; stimulated level without peptide = 100%, basal = 0%, 40 μM peptide): 13.8%; TNF-α at 4 μM peptide ([13]; 4 μM peptide): 87.0%; TNF-α at 10 μM peptide ([13]; 10 μM peptide): 31.1%
